Data: US5326788A, “Biological fluid purification system” (priority 1992, dated 1994)
“And” between values parts separate entries of the source, which are not always exact repeats. Equal entries are not always repeated.

Assays:
[1] = Effect of hypericin on hematologic parameters and blood chemistries of mouse blood; set-up: Hematocrit: unit not given here; conditions: for BUN / Hb / Hematocrit / WBC / albumin / alk. phos. / calcium / chloride / cholesterol / creatinine / globulins / glucose / iron / phosphorous / retics / sodium / total bilirubin / total protein / triglycerides / uric acid: mouse blood
Method: Analogous experiments to assess the effect of hypericin on routine clinical chemistries and hematologic parameters were determined in a commercial laboratory on mouse blood using higher concentrations of hypericin. Eight blood samples drawn in parallel were treated with hypericin ranging in concentration from 2.5 micrograms/ml to 200 micrograms/ml of whole blood.

Radiation Leukemia Virus = test: Inhibition of virus budding from infected AQR cells, reverse transcriptase assay; type: cell-based, Radiation Leukemia Virus in AQR (murine leukemia) cells; conditions: 1 hour incubation, supernatant after 24 hours; read-out: concentration completely inhibiting virus budding
Method: AQR (murine leukemia) cells producing Radiation Leukemia Virus (prepared as described in Meruelo, D., J. Exp. Med. 149: 898-909, 1979; and Bach, R. G. et al., J. Exp. Med. 160: 270-285, 1984) were incubated for 1 hour with various concentrations of synthetic hypericin (micrograms/ml shown in FIG. 3). The cells were then washed four times with phosphate buffer saline and incubated in fresh culture medium for 24 or 48 hours. Supernatants were then collected, pelleted (at 1000×g) for 15 minutes to remove whole cells and then repelleted at 100,000×g for 1 hour to collect virus particles. The second pellet was used for a reverse transcriptase assay, conducted as described in U.S. application Ser. No. 084,008 (Aug. 10, 1987) and 172,064 (Mar. 23, 1988).
The results of the reverse transcriptase assay are plotted in FIG. 3. […] Thus, the minimum incubation period that would destroy the ability of HIV-infected cells to participate in propagation of the HIV infection is likely to be much smaller than the 24 hours employed as the minimum waiting period in this assay.

Q: What does the source list for Cc1cc(O)c2c(=O)c3c(O)cc(O)c4c5c(O)cc(O)c6c(=O)c7c(O)cc(C)c8c1c2c(c34)c(c78)c65 [hypericin]?
A: BUN ([1]; 2.5 μg hypericin): 18 mg/dL and 17 mg/dL; Hb ([1]; 2.5 μg hypericin): 12.7 gm, dl; Hematocrit ([1]; 2.5 μg hypericin): 38.3 and 37.8; WBC ([1]; 2.5 μg hypericin): 4.6 /cumm and 4.8 /cumm; albumin ([1]; 2.5 μg hypericin): 3.4 g/dL and 2.6 g/dL; alk. phos. ([1]; 2.5 μg hypericin): 140 IU/l and 121 IU/l; calcium ([1]; 2.5 μg hypericin): 6.7 mg/dL and 5.4 mg/dL; chloride ([1]; 2.5 μg hypericin): 113 meq/l and 102 meq/l; cholesterol ([1]; 2.5 μg hypericin): 149 mg/dL and 143 mg/dL; creatinine ([1]; 2.5 μg hypericin): 0.4 mg/dL; globulins ([1]; 2.5 μg hypericin): 2.6 g/dL and 3.2 g/dL; glucose ([1]; 2.5 μg hypericin): 113 mg/dL and 68 mg/dL; iron ([1]; 2.5 μg hypericin): 219 mog/dl and 169 mog/dl; phosphorous ([1]; 2.5 μg hypericin): 8.1 mg/dL and 7.2 mg/dL; retics ([1]; 2.5 μg hypericin): 1.5% and 2.3%; sodium ([1]; 2.5 μg hypericin): 150 meq/l and 138 meq/l; total bilirubin ([1]; 2.5 μg hypericin): 0.8 mg/dL and 1.2 mg/dL; total protein ([1]; 2.5 μg hypericin): 6.0 g/dL and 5.8 g/dL; triglycerides ([1]; 2.5 μg hypericin): 80 mg/dL and 77 mg/dL; uric acid ([1]; 2.5 μg hypericin): 2.6 mg/dL and 2.8 mg/dL; BUN ([1]; 5.0 μg hypericin): 18 mg/dL; Hb ([1]; 5.0 μg hypericin): 12.9 gm, dl and 12.4 gm, dl; Hematocrit ([1]; 5.0 μg hypericin): 38.5; WBC ([1]; 5.0 μg hypericin): 4.7 /cumm and 4.5 /cumm; albumin ([1]; 5.0 μg hypericin): 3.5 g/dL; alk. phos. ([1]; 5.0 μg hypericin): 140 IU/l; calcium ([1]; 5.0 μg hypericin): 7.0 mg/dL; chloride ([1]; 5.0 μg hypericin): 113 meq/l; cholesterol ([1]; 5.0 μg hypericin): 156 mg/dL; creatinine ([1]; 5.0 μg hypericin): 0.4 mg/dL; glucose ([1]; 5.0 μg hypericin): 112 mg/dL; iron ([1]; 5.0 μg hypericin): 220 mog/dl; phosphorous ([1]; 5.0 μg hypericin): 8.1 mg/dL; retics ([1]; 5.0 μg hypericin): 2.2% and 2.0%; sodium ([1]; 5.0 μg hypericin): 150 meq/l; total bilirubin ([1]; 5.0 μg hypericin): 0.8 mg/dL; triglycerides ([1]; 5.0 μg hypericin): 85 mg/dL; uric acid ([1]; 5.0 μg hypericin): 2.7 mg/dL; BUN ([1]; 10 μg hypericin): 18 mg/dL; Hb ([1]; 10 μg hypericin): 12.8 gm, dl and 12.3 gm, dl; Hematocrit ([1]; 10 μg hypericin): 37.8; WBC ([1]; 10 μg hypericin): 4.5 /cumm; albumin ([1]; 10 μg hypericin): 3.5 g/dL; alk. phos. ([1]; 10 μg hypericin): 138 IU/l and 140 IU/l; calcium ([1]; 10 μg hypericin): 6.7 mg/dL; chloride ([1]; 10 μg hypericin): 112 meq/l; cholesterol ([1]; 10 μg hypericin): 155 mg/dL; creatinine ([1]; 10 μg hypericin): 0.3 mg/dL; globulins ([1]; 10 μg hypericin): 3.0 g/dL; glucose ([1]; 10 μg hypericin): 113 mg/dL; iron ([1]; 10 μg hypericin): 218 mog/dl and 220 mog/dl; phosphorous ([1]; 10 μg hypericin): 8.2 mg/dL and 8.1 mg/dL; retics ([1]; 10 μg hypericin): 1.7% and 0.5%; sodium ([1]; 10 μg hypericin): 148 meq/l; total bilirubin ([1]; 10 μg hypericin): 0.8 mg/dL and 0.9 mg/dL; total protein ([1]; 10 μg hypericin): 6.5 g/dL; triglycerides ([1]; 10 μg hypericin): 67 mg/dL and 64 mg/dL; uric acid ([1]; 10 μg hypericin): 2.9 mg/dL and 3.0 mg/dL; BUN ([1]; 25 μg hypericin): 18 mg/dL; Hb ([1]; 25 μg hypericin): 12.8 gm, dl; Hematocrit ([1]; 25 μg hypericin): 37.7 and 37.9; WBC ([1]; 25 μg hypericin): 4.7 /cumm; albumin ([1]; 25 μg hypericin): 3.7 g/dL and 3.6 g/dL; alk. phos. ([1]; 25 μg hypericin): 136 IU/l and 134 IU/l; calcium ([1]; 25 μg hypericin): 6.7 mg/dL and 6.3 mg/dL; chloride ([1]; 25 μg hypericin): 111 meq/l and 110 meq/l; cholesterol ([1]; 25 μg hypericin): 166 mg/dL and 162 mg/dL; creatinine ([1]; 25 μg hypericin): 0.3 mg/dL; globulins ([1]; 25 μg hypericin): 3.1 g/dL and 3.3 g/dL; glucose ([1]; 25 μg hypericin): 111 mg/dL and 110 mg/dL; iron ([1]; 25 μg hypericin): 218 mog/dl and 219 mog/dl; phosphorous ([1]; 25 μg hypericin): 8.2 mg/dL and 8.1 mg/dL; retics ([1]; 25 μg hypericin): 0.8% and 0.3%; sodium ([1]; 25 μg hypericin): 146 meq/l and 144 meq/l; total bilirubin ([1]; 25 μg hypericin): 0.9 mg/dL; total protein ([1]; 25 μg hypericin): 6.8 g/dL and 6.9 g/dL; triglycerides ([1]; 25 μg hypericin): 80 mg/dL and 84 mg/dL; uric acid ([1]; 25 μg hypericin): 3.9 mg/dL and 3.8 mg/dL; BUN ([1]; 50 μg hypericin): 18 mg/dL; Hb ([1]; 50 μg hypericin): 12.8 gm, dl; Hematocrit ([1]; 50 μg hypericin): 38.1 and 38.0; WBC ([1]; 50 μg hypericin): 4.8 /cumm; albumin ([1]; 50 μg hypericin): 3.5 g/dL; alk. phos. ([1]; 50 μg hypericin): 141 IU/l; calcium ([1]; 50 μg hypericin): 6.6 mg/dL and 6.8 mg/dL; chloride ([1]; 50 μg hypericin): 113 meq/l; cholesterol ([1]; 50 μg hypericin): 152 mg/dL and 150 mg/dL; creatinine ([1]; 50 μg hypericin): 0.4 mg/dL; globulins ([1]; 50 μg hypericin): 3.0 g/dL; glucose ([1]; 50 μg hypericin): 113 mg/dL and 114 mg/dL; iron ([1]; 50 μg hypericin): 220 mog/dl and 221 mog/dl; phosphorous ([1]; 50 μg hypericin): 8.3 mg/dL and 8.2 mg/dL; retics ([1]; 50 μg hypericin): 1.4% and 2.5%; sodium ([1]; 50 μg hypericin): 148 meq/l; total bilirubin ([1]; 50 μg hypericin): 0.8 mg/dL and 0.9 mg/dL; total protein ([1]; 50 μg hypericin): 6.5 g/dL; triglycerides ([1]; 50 μg hypericin): 61 mg/dL and 62 mg/dL; uric acid ([1]; 50 μg hypericin): 3.0 mg/dL and 2.8 mg/dL; BUN ([1]; 100 μg hypericin): 18 mg/dL and 17 mg/dL; Hb ([1]; 100 μg hypericin): 12.8 gm, dl and 13.2 gm, dl; Hematocrit ([1]; 100 μg hypericin): 37.8 and 38.4; WBC ([1]; 100 μg hypericin): 4.9 /cumm and 5.0 /cumm; albumin ([1]; 100 μg hypericin): 3.5 g/dL and 3.4 g/dL; alk. phos. ([1]; 100 μg hypericin): 140 IU/l and 138 IU/l; calcium ([1]; 100 μg hypericin): 6.6 mg/dL; cholesterol ([1]; 100 μg hypericin): 153 mg/dL and 151 mg/dL; creatinine ([1]; 100 μg hypericin): 0.4 mg/dL; globulins ([1]; 100 μg hypericin): 3.0 g/dL and 2.7 g/dL; iron ([1]; 100 μg hypericin): 220 mog/dl and 216 mog/dl; phosphorous ([1]; 100 μg hypericin): 8.2 mg/dL and 8.0 mg/dL; retics ([1]; 100 μg hypericin): 0.8% and 0.7%; sodium ([1]; 100 μg hypericin): 149 meq/l and 146 meq/l; total bilirubin ([1]; 100 μg hypericin): 1.0 mg/dL; total protein ([1]; 100 μg hypericin): 6.5 g/dL and 6.1 g/dL; triglycerides ([1]; 100 μg hypericin): 92 mg/dL and 87 mg/dL; uric acid ([1]; 100 μg hypericin): 3.2 mg/dL and 3.1 mg/dL; BUN ([1]; 200 μg hypericin): 18 mg/dL; Hb ([1]; 200 μg hypericin): 12.6 gm, dl and 12.7 gm, dl; Hematocrit ([1]; 200 μg hypericin): 37.5 and 34.6; WBC ([1]; 200 μg hypericin): 4.4 /cumm and 4.6 /cumm; albumin ([1]; 200 μg hypericin): 3.5 g/dL; alk. phos. ([1]; 200 μg hypericin): 139 IU/l and 140 IU/l; calcium ([1]; 200 μg hypericin): 6.6 mg/dL; chloride ([1]; 200 μg hypericin): 110 meq/l and 111 meq/l; cholesterol ([1]; 200 μg hypericin): 155 mg/dL and 157 mg/dL; creatinine ([1]; 200 μg hypericin): 0.4 mg/dL; globulins ([1]; 200 μg hypericin): 3.3 g/dL and 2.9 g/dL; glucose ([1]; 200 μg hypericin): 122 mg/dL and 111 mg/dL; iron ([1]; 200 μg hypericin): 211 mog/dl and 215 mog/dl; phosphorous ([1]; 200 μg hypericin): 7.9 mg/dL and 8.0 mg/dL; retics ([1]; 200 μg hypericin): 2.8% and 0.6%; sodium ([1]; 200 μg hypericin): 145 meq/l and 147 meq/l; total bilirubin ([1]; 200 μg hypericin): 1.1 mg/dL; total protein ([1]; 200 μg hypericin): 6.8 g/dL and 6.4 g/dL; triglycerides ([1]; 200 μg hypericin): 92 mg/dL and 89 mg/dL; uric acid ([1]; 200 μg hypericin): 3.8 mg/dL and 3.6 mg/dL; effect on clinical chemistries and hematological parameters (summary) ([1]; up to 200 micrograms/ml): did not significantly affect; IC100 (Radiation Leukemia Virus): 10 µg/mL
